These results are taken from PMC7988117, “OMN6 a novel bioengineered peptide for the treatment of multidrug resistant Gram negative bacteria” (Scientific Reports, 2021).

Read-outs that look alike come from different tables or passages of the source.

Experiment [1] relates to A. baumannii BAA-1793. Particulars: determined by ATCC according to CLSI guidelines, ref ATCC; cited from earlier work. The text has this: Supplement 41598_2021_86155_MOESM1_ESM.docx, table 3: Table S3. Supplementary information about the resistance pattern of the bacterial strain A. baumannii BAA-1793 used in the Minimum Inhibitory Concentration study presented in Table 1.

The subject of experiment [2] is E. faecium BAA-2319. Particulars: determined by ATCC according to CLSI guidelines, ref ATCC; cited from earlier work. An excerpt: Supplement 41598_2021_86155_MOESM1_ESM.docx, table 2: Table S2. Supplementary information about the resistance pattern of the bacterial strain E. faecium BAA-2319 used in the Minimum Inhibitory Concentration study presented in Table 1.

Experiment [3] deals with Staphylococcus aureus. Nature of the experiment: VITEK 2 antimicrobial sensitivity characterization. It is filed as cell-based. The following applies: VITEK 2 system, CLSI ranges. As to the method:
(§1) This experiment was conducted by Omnix Medical, by JMI Laboratories (North Liberty, IA, USA) and by Aptuit (Verona) S.r.l. (Italy), an Evotec Company. All studies were performed according to Clinical and Laboratory Standards Institute guidelines[30] for the application of the broth microdilution method. Reference strains from American Type Culture Collection (ATCC) and clinical isolates from the Evotec EvostrAIn and the JMI Laboratories SENTRY surveillance program culture collections (Acinetobacter baumannii: ACC 00445, ACC 00527, ACC 00535, ATCC 17978, ATCC 19606, ATCC BAA-1793, ACC 01076, ACC 01077, NCTC 13420, JMI #1088100 and JMI #1001007; Klebsiella pneumoniae: ATCC 43816 and ATCC BAA-1705; Escherichia coli: ACC 01001 and ATCC 25922; Staphylococcus aureus: ATCC 29213, ATCC BAA-44 and ATCC 33591; Bacillus cereus: ATCC 14579; Enterococcus faecalis: ATCC 29212; Enterococcus faecium: ATCC BAA-2319) were used. The antimicrobial activity of OMN6 was determined by 12 serial two-fold dilutions in water of the 100-fold highest compound solution; 1 µL of each well was transferred into 96 microtiter plates (final concentration: 256–0.12 µg/mL). In most strains, same procedure was used to determine the colistin antimicrobial activity (final concentration: 32–0.015 µg/mL). Bacterial strains were sub-cultured on the agar plates and incubated for 18–24 h at 35 ± 2 °C in ambient air. Following incubation, the inoculum was prepared from isolated colonies and adjusted to 0.5 McFarland turbidity standard (1 to 2 × 10^8 colony-forming units/mL) in 0.9% saline. Bacterial suspension was then diluted 1:200 in Muller-Hinton broth (from BD; Becton, Dickinson and Company, Franklin Lakes, NJ, USA) and within 15 min 100 µL/well were dispensed. Growth-control wells and sterility-check wells (uninoculated well) were present in each plate. Plates were incubated for 18–24 h at 35 ± 2 °C in ambient air. […] The antimicrobial activity to other antibiotics on most bacterial strains was determined by Evotec using the antimicrobial sensitive test from the VITEK 2 automated microbiology system (bioMérieux SA, Marcy l'Etoile, France; data presented in Table S1), or by ATCC according to CLSI (Clinical and Laboratory Standards Institute) guidelines[30]
Table S1. Supplementary information about the resistance pattern of 14 bacterial strains used in the Minimum Inhibitory Concentration study presented in Table 1. The resistance pattern of the different bacterial isolates was characterized by broth microdilution studies (for colistin) or with the VITEK 2 system (for the other antibiotics).

Experiment [4] relates to Acinetobacter baumannii clinical isolates. Nature of the experiment: Time-kill studies. It is filed as cell-based. The following applies: Difco Muller Hinton Broth. As to the method:
Time-kill experiments were performed by JMI Laboratories (North Liberty, IA, USA) as described in chapter 5.14 of the Clinical Microbiology Procedures Handbook[32] and the CLSI M26-A[33] document. Two Acinetobacter baumannii clinical isolates (JMI colistin-sensitive strain #1088100 and colistin-resistant strain #1001007) were used for this study. MIC values that were determined in Difco Muller Hinton Broth (BD) for OMN6 and colistin as described above, were used as the baseline values during time-kill testing. In the time-kill experiments, OMN6 and colistin were tested in Difco Muller Hinton Broth. The time-kill cultures were sampled at 0, 2, 4, 8, and 24 h after compound addition. The number of CFU/mL in each culture was measured by plating 100 μL of serial dilutions onto blood agar plates. Colonies were counted after 48 h of growth at 35 °C. Time-kill curves were generated by plotting CFU/mL as log10 values over time. The limit of detection was 10 CFU/mL. Bactericidal activity was defined as a ≥ 99.9% reduction (i.e., a ≥ 3 log10 decrease) in the number of input bacterial cells at any arbitrary timepoint.

Experiment [5] deals with Acinetobacter baumannii. Particulars: Difco Muller Hinton Broth, data not shown. As to the method:
as §1

On to `NCC[C@H](O)C(=O)N[C@@H]1C[C@H](N)[C@@H](O[C@H]2O[C@H](CN)[C@@H](O)[C@H](O)[C@H]2O)[C@H](O)[C@H]1O[C@H]1O[C@H](CO)[C@@H](O)[C@H](N)[C@H]1O` [Amikacin], for which, in experiment [1], the Resistance pattern result is given as “S”.
Turning to `CC1(C)S[C@@H]2[C@H](NC(=O)[C@H](N)c3ccccc3)C(=O)N2[C@H]1C(=O)O` [Ampicillin], the Resistance pattern entry in experiment [2] and in experiment [1] was “R” in each case.
For `C[C@H]1[C@H](NC(=O)/C(=N\OC(C)(C)C(=O)O)c2csc(N)n2)C(=O)N1S(=O)(=O)O` [Aztreonam], the Resistance pattern entry in experiment [1] is “R”.
Turning to `CC1(C)S[C@@H]2[C@H](NC(=O)Cc3ccccc3)C(=O)N2[C@H]1C(=O)O` [Benzylpenicillin], the Resistance pattern result in experiment [2] was “R”.
Consider `CCC[C@@H]1C[C@@H](C(=O)N[C@@H]([C@H]2O[C@H](SC)[C@H](O)[C@@H](O)[C@H]2O)[C@H](C)Cl)N(C)C1` [CLI, clindamycin], for which the “VITEK characterization (resistance range)” value (“VITEK characterization” for short) in experiment [3] (S. aureus ATCC 29213) was “S”; in experiment [3] (S. aureus ATCC 33591) it was “R”.
As for `CC(=O)OCC1=C(C(=O)O)N2C(=O)[C@@H](NC(=O)Cc3cccs3)[C@H]2SC1` [Cefalotin], the Resistance pattern result in experiment [1] is recorded as “R”.
Consider `Cc1nnc(SCC2=C(C(=O)O)N3C(=O)[C@@H](NC(=O)Cn4cnnn4)[C@H]3SC2)s1` [Cefazolin], for which, in experiment [1], the Resistance pattern entry is given as “R”.
Turning to `CO/N=C(\C(=O)N[C@@H]1C(=O)N2C(C(=O)[O-])=C(C[N+]3(C)CCCC3)CS[C@H]12)c1csc(N)n1` [Cefepime], the Resistance pattern entry in experiment [1] is reported as “R”.
As to `CO[C@@]1(NC(=O)C2SC(=C(C(N)=O)C(=O)O)S2)C(=O)N2C(C(=O)O)=C(CSc3nnnn3C)CS[C@@H]21` (stereo partly shown) [Cefotetan], in experiment [1], the Resistance pattern result is on record as “R”.
In the case of `CO[C@@]1(NC(=O)Cc2cccs2)C(=O)N2C(C(=O)O)=C(COC(N)=O)CS[C@@H]21` [Cefoxitin], in experiment [1], the Resistance pattern result is given as “R”.
For `COCC1=C(C(=O)O)N2C(=O)[C@@H](NC(=O)/C(=N\OC)c3csc(N)n3)[C@H]2SC1` [Cefpodoxime], the Resistance pattern result in experiment [1] is reported as “R”.
On to `CO/N=C(\C(=O)N[C@@H]1C(=O)N2C(C(=O)O)=CCS[C@H]12)c1csc(N)n1` [Ceftizoxime], for which the Resistance pattern entry in experiment [1] is on record as “R”.
As to `CO/N=C(\C(=O)N[C@@H]1C(=O)N2C(C(=O)O)=C(CSc3nc(=O)c(=O)[nH]n3C)CS[C@H]12)c1csc(N)n1` [Ceftriaxone], the Resistance pattern result in experiment [1] is on record as “R”.
Take `CO/N=C(\C(=O)N[C@@H]1C(=O)N2C(C(=O)OC(C)OC(C)=O)=C(COC(N)=O)CS[C@H]12)c1ccco1` (stereo partly shown) [Cefuroxime Axetil]: the Resistance pattern entry in experiment [1] is reported as “R”.
In the case of `CO/N=C(\C(=O)N[C@@H]1C(=O)N2C(C(=O)O)=C(COC(N)=O)CS[C@H]12)c1ccco1` [Cefuroxime], the Resistance pattern entry in experiment [1] is recorded as “R”.
`CC[C@H]1OC(=O)[C@H](C)[C@@H](O[C@H]2C[C@@](C)(OC)[C@@H](O)[C@H](C)O2)[C@H](C)[C@@H](O[C@@H]2O[C@H](C)C[C@H](N(C)C)[C@H]2O)[C@](C)(O)C[C@@H](C)C(=O)[C@H](C)[C@@H](O)[C@]1(C)O` [ERY, erythromycin]: the “VITEK characterization” value is reported as “S” in experiment [3] (S. aureus ATCC 29213) and “R” in experiment [3] (S. aureus ATCC 33591). Moreover, in experiment [2], the Resistance pattern entry is “R”.
Take `C[C@H]1COc2c(N3CCN(C)CC3)c(F)cc3c(=O)c(C(=O)O)cn1c23` [Levofloxacin]: the Resistance pattern result in experiment [2] is reported as “R”.
Take `C[C@@H](O)[C@H]1C(=O)N2C(C(=O)O)=C(S[C@@H]3CN[C@H](C(=O)N(C)C)C3)[C@H](C)[C@H]12` [Meropenem]: the Resistance pattern result in experiment [1] was “R”.
Take `COc1c(N2C[C@@H]3CCCN[C@@H]3C2)c(F)cc2c(=O)c(C(=O)O)cn(C3CC3)c12` [Moxifloxacin]: the Resistance pattern entry in experiment [1] was “R”.
Regarding `CCn1cc(C(=O)O)c(=O)c2ccc(C)nc21` [Nalidixic Acid], the Resistance pattern result in experiment [1] is given as “R”.
Take `O=C1CN(/N=C/c2ccc([N+](=O)[O-])o2)C(=O)N1` [Nitrofurantoin]: the Resistance pattern entry in experiment [2] and in experiment [1] was “R” throughout.
Consider `CCn1cc(C(=O)O)c(=O)c2cc(F)c(N3CCNCC3)cc21` [Norfloxacin], for which the Resistance pattern result in experiment [1] is given as “R”.
For the compound `Cc1onc(-c2ccccc2)c1C(=O)N[C@@H]1C(=O)N2[C@@H]1SC(C)(C)[C@@H]2C(=O)O` [OXA, oxacillin], the “VITEK characterization” value is “S” in experiment [3] (S. aureus ATCC 29213) and “R” in experiment [3] (S. aureus ATCC 33591).
With `CCN1CCN(C(=O)N[C@@H](C(=O)N[C@@H]2C(=O)N3[C@@H]2SC(C)(C)[C@@H]3C(=O)O)c2ccccc2)C(=O)C1=O` [Piperacillin], the Resistance pattern result in experiment [1] is “R”.
In the case of `CN(C)[C@@H]1C(O)=C(C(N)=O)C(=O)[C@@]2(O)C(O)=C3C(=O)c4c(O)cccc4[C@@](C)(O)[C@H]3C[C@@H]12` [TET, tetracycline], the “VITEK characterization” value was “S” in experiment [3] (S. aureus ATCC 29213) and “R” in experiment [3] (S. aureus ATCC 33591). The Resistance pattern entry in experiment [2] and in experiment [1] was “R” throughout.
Turning to `CC1(C)S[C@@H]2[C@H](NC(=O)[C@H](C(=O)O)c3ccsc3)C(=O)N2[C@H]1C(=O)O` [Ticarcillin], the Resistance pattern entry in experiment [1] is on record as “R”.
Consider `CN(C)c1cc(NC(=O)CNC(C)(C)C)c(O)c2c1C[C@H]1C[C@H]3[C@H](N(C)C)C(O)=C(C(N)=O)C(=O)[C@@]3(O)C(O)=C1C2=O` [Tigecycline], for which the Resistance pattern result in experiment [2] and in experiment [1] was “S” throughout.
As to `NC[C@H]1O[C@H](O[C@H]2[C@H](O)[C@@H](O[C@H]3O[C@H](CO)[C@@H](O)[C@H](N)[C@H]3O)[C@H](N)C[C@@H]2N)[C@H](N)C[C@@H]1O` [Tobramycin], the Resistance pattern entry in experiment [1] was “R”.
Take `CN[C@H](CC(C)C)C(=O)N[C@H]1C(=O)N[C@@H](CC(N)=O)C(=O)N[C@H]2C(=O)N[C@H]3C(=O)N[C@H](C(=O)N[C@H](C(=O)O)c4cc(O)cc(O)c4-c4cc3ccc4O)[C@H](O)c3ccc(c(Cl)c3)Oc3cc2cc(c3O[C@@H]2O[C@H](CO)[C@@H](O)[C@H](O)[C@H]2O[C@H]2C[C@](C)(N)[C@H](O)[C@H](C)O2)Oc2ccc(cc2Cl)[C@H]1O` [VAN, vancomycin]: the “VITEK characterization” value in experiment [3] (S. aureus ATCC 29213) and in experiment [3] (S. aureus ATCC 33591) was “S” throughout. The Resistance pattern result in experiment [2] is “R”.
On to colistin, for which, in experiment [4] (colistin-resistant A. baumannii JMI #1001007, bactericidal = ≥ 3 log10 decrease), the “Concentrations with bactericidal effect” value fell in the range of 16 to 32 µg/mL. Besides, in experiment [4] (colistin-sensitive A. baumannii JMI #1088100, bactericidal = ≥ 3 log10 decrease), the “Concentrations with bactericidal effect after 2 h of incubation” value was greater than 0.25 µg/mL. In experiment [4] (colistin-sensitive A. baumannii JMI #1088100, sampled 0, 2, 4, 8, 24 h), the “Re-growth during the 24 h timeframe” value is recorded as “No re-growth”. The results for the MIC colistin value in experiment [5] (A. baumannii JMI #1001007 colistin-resistant strain) and in experiment [5] (A. baumannii JMI #1088100 colistin-sensitive strain) were 8 µg/mL and 0.5 µg/mL, respectively.
